Experimental data: article PMC6465301, “Enzyme-responsive progelator cyclic peptides for minimally invasive delivery to the heart post-myocardial infarction” (Nature Communications, 2019)
Bridge positions count the residues as written; N and C are the ends. Peptide text beside a SMILES is read from it.

Key:
thermolysin = target: T1, thermolysin (Bacillus thermoproteolyticus, UniProt P00800); experiment: Time course rheology of thermolysin-induced bulk gelation and gel stability; type: in vitro ADME; settings: 10 mM in 1× DPBS pH 7.4, thermolysin 1:4500, 37 °C, continuous rheological measurement
T1 construct: purchased Promega V4001
T1 sequence (P00800 233-548): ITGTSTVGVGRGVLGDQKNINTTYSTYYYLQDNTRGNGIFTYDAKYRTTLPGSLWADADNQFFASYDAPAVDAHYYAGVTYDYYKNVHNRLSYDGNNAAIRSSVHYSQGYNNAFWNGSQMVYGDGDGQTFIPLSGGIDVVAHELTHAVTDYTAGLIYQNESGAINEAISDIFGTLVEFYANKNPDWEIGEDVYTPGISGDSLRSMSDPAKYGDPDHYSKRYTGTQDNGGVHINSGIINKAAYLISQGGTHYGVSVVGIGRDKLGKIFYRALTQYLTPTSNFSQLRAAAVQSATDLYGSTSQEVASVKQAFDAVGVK
Description: All peptide samples were prepared at 10 mM peptide, except for those used to assess the effect of SAP functionalization with respect to weight (15 mg mL^−1). Viscous and viscoelastic properties were assessed using a stress-controlled rheometer (TA Instruments AR-G2) equipped with a Peltier plate to control temperature and a 20 mm diameter parallel plate geometry. Unless otherwise stated all measurements were taken at an angular frequency of 2.5 rad s^−1, strain of 0.5%, and temperature of 37 °C. Measurements were performed with a gap height of 1000 µm and repeated three times (except for step-strain and time course measurements) to ensure reproducibility. To prevent water evaporation, mineral oil was wrapped around the edge of the geometry at the air–sample interface. For viscoelastic measurements the apparatus was used in oscillatory mode. […] The dynamic moduli of the hydrogels were measured as a function of frequency in the range 0.25–100 rad s^−1 at a strain of 0.5%. Continuous step-strain oscillations were used to monitor hydrogel healing through disruption (3 min, 100% strain) and recovery (15 min, 0.5% strain) cycles (n = 3). For viscosity measurements the apparatus was used in steady-state flow mode. The viscosity of the samples was measured as a function of shear rate in the range 0.1–10 s^−1 (5% tolerance). […]

red blood cells (RBCs) = experiment: Hemolysis assay of red blood cells; type: cell-based; settings: positive control at 1%, defines 100% hemolysis; human RBCs, 1 h, 37 °C; mean of n = 4
Description: RBCs were isolated by centrifugation of 40 mL citrated whole human blood at 500 × g for 5 min, followed by gentle washes with 150 mM NaCl (×1) and 1× DPBS (×3). Isolated RBCs were diluted 1:50 into 1× DPBS (pH 7.4) and lightly agitated to prevent settling. Briefly, 190 µL of dilute RBCs and 10 µL of peptide stock or additive (20× final concentration) were mixed and added to a 96-well plate (n = 4 repeats), covered, and incubated at 37 °C for 1 h. Plates were centrifuged at 500 × g to pellet intact RBCs using a centrifuge equipped with a microplate rotor. Supernatant (100 µL) was transferred to a new 96-well plate, taking care not to disturb the pellet. Absorbance of the supernatant was measured at 540 nm to detect released hemoglobin. To calculate % hemolysis, absorbances were corrected for background absorbance from untreated vehicle and then normalized to 1% Triton X-100-treated RBCs to represent 100% hemolysis. %Hemolysis was calculated according to the following equation:2 %Hemolysis=Absexperiemental-Absnegativecontrol/Abspositivecontrol-Absnegativecontrol×100, where Absexperiemental is the average well absorbance pertaining to RBCs pertaining to the additive sample being analyzed, Absnegative control is the average well absorbance for RBCs incubated with vehicle (1× DPBS), and Abspositive control is the average well absorbance for RBCs containing 1% Triton X-100. […]

[1] = tested on: platelet-poor plasma (PPP)
Description: For all measurements, peptide stocks in 1× DPBS were prepared such that the final concentrations (v/v) in blood or plasma were 1:10, 1:100, 1:500,1:1000, 1:5000, 1:10,000, and 1:20,000 (peptide/fluid volume). Controls with collagen as a procoagulant initial platelet-adhesive surface (0.095 mg mL^−1 or 1:240 dilution) or with calcium chelated by sodium citrate utilized 1× DPBS as a vehicle to ensure consistent blood dilution in all experiments. Peptide stocks, whole human blood, isolated RBCs, and PPP were warmed to 37 °C immediately prior to use. Plate reader measurements were conducted on an EnSpire Multimode Plate Reader with 96-well tissue culture plates (TCP).
PPP was isolated from citrated whole human blood through two rounds of centrifugation at 2000 × g for 10 min and collection of the upper two-third layer. Briefly, 100 µL of PPP, 50 µL of peptide stock or additive (4× final concentration), and 50 µL of CaCl2 (50 mM) were mixed and added to a 96-well plate and incubated at 37 °C for kinetics measurements. For each sample, n = 6 repeats were conducted. Coagulation profiles were obtained by measuring well absorbance at 405 nm at 30 s intervals for 60 min. Onset to clotting was detected as a sharp increase in sample turbidity.

CC(C)C[C@@H]1NC(=O)CNC(=O)[C@H](CC(C)C)NC(=O)[C@@H]2CCCN2C(=O)[C@H](CC(C)C)NC(=O)[C@H](CC(=O)O)NC(=O)[C@H](CC(C)C)NC(=O)[C@H](CCCCN)NC(=O)[C@H](CC(C)C)NC(=O)[C@H](CC(=O)O)NC(=O)[C@H](CC(C)C)NC(=O)[C@H](CCCCN)NC(=O)[C@H](CC(C)C)NC(=O)[C@H](CC(=O)O)NC(=O)[C@H](CC(C)C)NC(=O)[C@H](CCCCN)NC(=O)[C@@H](N)CSSC[C@@H](C(N)=O)NC(=O)CNC(=O)[C@H](C)NC1=O [KLDLCyclic] (H-CKLDLKLDLKLDLPLGLAGC-NH2; disulfide 1-20)
Stability of viscoelastic properties of resulting gel in the presence of thermolysin (thermolysin): no change for up to 3 days

Triton X-100
%Hemolysis (red blood cells (RBCs)): 100.00%

collagen
Pro-thrombotic profile in PPP [1]: lack of change in pro-thrombotic profiles
